Experimental data taken from patent US20170058314A1, “NOVEL METHODOLOGY FOR IDENTIFYING ANTI-PERSISTER ACTIVITY AND ANTIMICROBIAL SUSCEPTIBILITY FOR BORRELIA BURGDORFERI AND OTHER BACTERIA” (priority 2014, published 2017).
Values after ≈ are worked out from the molar mass of the structure shown. Where two headings read alike, the source gives them in different places. Marks after values point to notes of the source that are not given here. Starred links: 1 amine or outer side, 2 acyl side, 3 side chain; linkers in the order of their positions; H or OH if unused. Positions of bridges follow the written chain, without caps; N, C: chain ends. Non-standard residues stand in square brackets, D forms with d. Residues, ends and D or L forms follow the SMILES beside them. Chains are numbered I, II in the order given. Actinocin(9to1) = Cc1c2oc3c(C)ccc(C(=O)[*:1])c3nc-2c(C(=O)[*:2])c(N)c1=O; NMeV = CN[C@H](C(=O)O)C(C)C; Sar = CNCC(=O)O

Columns and labels:
[1] = tested on: S. aureus strains (Newman, USA300, CA-409, CA-127, NY-315); test: Rapid SYBR Green/PI antibiotic susceptibility test; assay type: cell-based, Staphylococcus aureus; conditions: for cut-off (averaged proportion of killed cells) for resistant strains / cut-off (averaged proportion of killed cells) for susceptible strains: 100 μg/mL, 1.5 hours; for percent killed, sensitive Newman strain: kanamycin 25, erythromycin 400, ciprofloxacin 50, gentamicin 400 μg/mL
[2] = tested on: log phase and stationary phase B. burgdorferi culture; test: Antibiotic exposure assay, SYBR Green I/PI (drugs alone and combinations); conditions: for Live cell %, ten day old stationary phase culture (in brackets): 10 μg/mL drugs or combinations; for viability at 10 µg/mL: Borreliella burgdorferi, 168 h, read-out: Live Cell % (residual viable B. burgdorferi), ten-day-old stationary phase culture enriched with micro-colonies, 10 μg/mL each drug, 7 days
Experimental: To qualitatively determine the effect of antibiotics, 10 μL of each compound from the pre-diluted plate or pre-diluted stock was added to stationary phase B. burgdorferi culture in the 96-well plate. The final volume per well was adjusted to 100 μL at a concentration of 10 μg/mL for each antibiotic. Plates were sealed and placed in a 33° C. incubator for 7 days. The SYBR Green I/PI viability assay was used to assess the live and dead cells after antibiotic exposure as described (Feng, Wang, Shi, et al., 2014). Briefly, 10 μL of SYBR Green I (10,000×stock, Invitrogen) was mixed with 30 μL propidium iodide (PI, 20 mM) into 1.0 mL of sterile dH2O. Then, 10 μL of staining mixture was added to each well and mixed thoroughly. The plates were incubated at room temperature in the dark for 15 minutes followed by plate reading at excitation wavelength at 485 nm and the fluorescence intensity at 535 nm (green emission) and 635 nm (red emission) in microplate reader (HTS 7000 plus Bio Assay Reader, PerkinElmer Inc., USA). With least-square fitting analysis, the regression equation and regression curve of the relationship between percentage of live bacteria and green/red fluorescence ratios was obtained. The regression equation was used to calculate the percentage of live cells in each well of the 96-well plate.
To qualitatively determine the effect of antibiotics, 10 μL of each compound (final concentration 50 μM) from the pre-diluted plate or pre-diluted stock was added to round body form or stationary phase B. burgdorferi culture in the 96-well plate. The final volume per well was adjusted to 100 μL. Plates were sealed and placed in a 33° C. incubator for 7 days. The SYBR Green I/PI viability assay was used to assess the live and dead cells after antibiotic exposure as described (Feng, Wang, Shi, et al., 2014). Briefly, 10 μL of SYBR Green I (10,000×stock, Invitrogen) was mixed with 30 μL propidium iodide (PI, 20 mM, Sigma-Aldrich) into 1.0 mL of sterile dH2O. Then, 10 μL staining mixture was added to each well and mixed thoroughly. The plates were incubated at room temperature in the dark for 15 minutes followed by plate reading at excitation wavelength at 485 nm and the fluorescence intensity at 535 nm (green emission) and 635 nm (red emission) in microplate reader (HTS 7000 plus Bio Assay Reader, PerkinElmer Inc., USA). With least-square fitting analysis, the regression equation and regression curve of the relationship between percentage of live and dead bacteria as shown in green/red fluorescence ratios was obtained. The regression equation was used to calculate the percentage of live cells in each well of the 96-well plate.
Round body form and ten day old stationary phase (in brackets) B. burgdorferi culture was treated with 10 μg/mL drugs or their combinations for 7 days. Residual viable B. burgdorferi was calculated according to the regression equation and ratio of Green/Red fluorescence obtained by SYBR Green I/PI assay as described (Feng, Wang, Shi, et al., 2014). Direct microscopy counting was employed to rectify the results of the SYBR Green I/PI assay. […] Abbreviation: Dox, doxcycline; CefP, cefoperazone; DAP, daptomycin; CefM, cefmetazole; Scp, sulfachlorpyridazine; Art, artemisinin; Nft, nitrofurantoin.

[3] = tested on: round body form of B. burgdorferi; test: SYBR Green I/PI assay on amoxicillin-induced round body form; conditions: for Live cell %, round body form: 10 μg/mL drugs or combinations; for Live cell %, round body form / Ratios of green/red fluorescence, Primary screening / Ratios of green/red fluorescence, Rescreening (first column) / Ratios of green/red fluorescence, Rescreening (second column): 7 days; for viability at 50 µM: Borreliella burgdorferi, 168 h, read-out: Residual viable cells (SYBR Green I/PI assay); for Ratios of green/red fluorescence, Primary screening / Ratios of green/red fluorescence, Rescreening (first column) / Ratios of green/red fluorescence, Rescreening (second column): round body form, 50 μM
[4] = tested on: stationary phase B. burgdorferi persisters (strain B31); test: SYBR Green I/PI viability assay (plate reader), FDA-approved drug library screen
[5] = tested on: B. burgdorferi (growing, strain B31); test: MIC determination, standard microdilution method; assay type: cell-based, Borrelia burgdorferi
[6] = tested on: stationary phase B. burgdorferi persisters (strain B31); test: NCI compound library screen, SYBR Green I/PI assay (plate reader); conditions: for viability at 50 µM / viability at 20 µM: Borreliella burgdorferi, 168 h
[7] = tested on: stationary phase B. burgdorferi persisters (strain B31); test: NCI compound library rescreen, epifluorescence microscope counting; conditions: for viability at 50 µM / viability at 20 µM: Borreliella burgdorferi, 168 h; for viability at 20 µM: read-out: Residual viable cells (%) 20 μM (epifluorescence microscope counting)
[8] = 50 μM, 7 days, stationary phase
[9] = read-out: Residual viable cells (SYBR Green I/PI assay), 50 μM, seven day old stationary phase culture, 7 days
[10] = read-out: Activity against persisters (residual viable cell percentage)
[11] = read-out: Residual viable cells (epifluorescence microscope counting)
[12] = Borreliella burgdorferi, growing B. burgdorferi, read-out: MIC
[13] = read-out: Residual viable cells (%) 50 μM (epifluorescence microscope counting)
[14] = read-out: Residual viable cells (SYBR Green I/PI assay)
[15] = 50 μM, seven day old stationary phase culture, 7 days

CC[C@H]1OC(=O)[C@H](C)[C@@H](O[C@H]2C[C@@](C)(OC)[C@@H](O)[C@H](C)O2)[C@H](C)[C@@H](O[C@@H]2O[C@H](C)C[C@H](N(C)C)[C@H]2O)[C@](C)(O)C[C@@H](C)C(=O)[C@H](C)[C@@H](O)[C@]1(C)O [erythromycin]
cut-off (averaged proportion of killed cells) for resistant strains [1]: −0.1
cut-off (averaged proportion of killed cells) for susceptible strains [1]: −0.4
percent killed, resistant strain NY-315 ([1]; 30 minutes, kanamycin 25, erythromycin 400 μg/mL): 17%
percent killed, sensitive Newman strain ([1]; 30 minutes): 50%

gentamicin
cut-off (averaged proportion of killed cells) for resistant strains [1]: −0.2
cut-off (averaged proportion of killed cells) for susceptible strains [1]: −0.3
percent killed, resistant strain CA-409 ([1]; 30 minutes, kanamycin 25, ciprofloxacin 50, gentamicin 400 μg/mL): 10%
percent killed, sensitive Newman strain ([1]; 30 minutes): 27%

Nc1ccc(S(=O)(=O)Nc2ccc(Cl)nn2)cc1 [Scp, sulfachlorpyridazine]
Live cell %, ten day old stationary phase culture (in brackets) ([2]; 7 days): 68%
residual viable / live cells, stated in text for stationary phase B. burgdorferi ([2]; drug combination test, refers to Table 6): about 38%
Live cell %, round body form [3]: 38%

CO[C@@]1(NC(=O)CSCC#N)C(=O)N2C(C(=O)O)=C(CSc3nnnn3C)CS[C@@H]21 [Cefmetazole]
Live cell %, ten day old stationary phase culture (in brackets) ([2]; 7 days): 53%
Live cell %, round body form [3]: 34%
viability at 50 µM [3]: 33%
Ratios of green/red fluorescence, Primary screening [3]: 6.13
Ratios of green/red fluorescence, Rescreening (first column) [3]: 6.25
Ratios of green/red fluorescence, Rescreening (second column) [3]: 6.46
Ratio of Green/Red fluorescence, Primary screening [4, 8]: 6.80
Ratio of Green/Red fluorescence, Rescreening (first column) [4, 8]: 7.38
Ratio of Green/Red fluorescence, Rescreening (second column) [4, 8]: 6.00
viability at 50 µM ([4]; Borreliella burgdorferi, 168 h, read-out: Residual viable cells (regression equation, SYBR Green I/PI assay)): 43%

polymyxin B [Pmb]
Live Cell % (residual viable B. burgdorferi) ([2]; ten-day-old stationary phase culture enriched with micro-colonies, 10 μg/mL each drug, 7 days): 77% ^c

Clc1ccc(COC(Cn2ccnc2)c2ccc(Cl)cc2Cl)c(Cl)c1 (centres unmarked) [Mcz, miconazole]
viability at 10 µg/mL [2]: 65%
sensitivity of log phase / multiplying B. burgdorferi (words, FIG. 12) ([5]; MIC test): less potent

CO[C@@]12[C@H](COC(N)=O)C3=C(C(=O)C(C)=C(N)C3=O)N1C[C@@H]1N[C@@H]12 [NSC26980, Mitomycin]
viability at 50 µM [6, 9]: 20%
MIC ([5]; Borreliella burgdorferi): ≤ 0.21 µg/mL
MIC ([5]; growing B. burgdorferi): ≦0.21 μg/mL
viability at 50 µM [7, 10]: 25%
viability at 50 µM [7, 11]: 25%

CC1OC(CC(=O)O)CC2=C1C(=O)c1c(O)cccc1C2=O (centres unmarked) [NSC267461, Nanaomycin]
viability at 20 µM ([6]; read-out: Residual viable cells (%) 20 μM (SYBR Green I/PI assay), 20 μM, seven day old stationary phase, 7 days): 39%
viability at 50 µM [6, 9]: 34%
MIC [5, 12]: 0.76 to 1.57 µg/mL (≈ 2.51 to 5.19 µM)
viability at 50 µM [7, 10]: 26%
viability at 20 µM [7]: 45%
viability at 50 µM [7, 13]: 26%
viability at 50 µM [7, 11]: 26%

CC1Oc2cc3c(-c4c(O)cc(O)c5c(O)c6c(cc45)OC(C)C(C)C6=O)c(O)cc(O)c3c(O)c2C(=O)C1C (centres unmarked) [NSC345647, Chaetochromin]
viability at 20 µM ([6]; read-out: Residual viable cells (%) 20 μM (SYBR Green I/PI assay)): 31%
viability at 50 µM [6, 14]: 8%
MIC [5, 12]: 2.74 to 5.47 µg/mL (≈ 5.01 to 10 µM)
viability at 50 µM [7, 10]: 22%
viability at 20 µM [7]: 33%
viability at 50 µM [7, 13]: 22%
viability at 50 µM [7, 11]: 22%

CCN(CCO)CCCC(C)Nc1ccnc2cc(Cl)ccc12 (centres unmarked) [Hcq, hydroxychloroquine]
viability at 10 µg/mL [2]: 71%

CC1COc2c(N3CCN(C)CC3)c(F)cc3c(=O)c(C(=O)O)cn1c23 (centres unmarked) [Ofl, ofloxacin]
viability at 10 µg/mL [2]: 81%

CO[C@H]1/C=C/O[C@@]2(C)Oc3c(C)c(O)c4c(O)c(c(/C=N/N5CCN(C)CC5)c(O)c4c3C2=O)NC(=O)/C(C)=C\C=C\[C@H](C)[C@H](O)[C@@H](C)[C@@H](O)[C@@H](C)[C@H](OC(C)=O)[C@@H]1C [Rif, rifampin]
viability at 10 µg/mL [2]: 82%

O=C1c2ccccc2C(=O)c2c(NCCNCCO)ccc(O)c21 [NSC299187, 9,10-Anthracenedione, 1-hydroxy-4-[[2-[(2-hydroxyethyl)amino]ethyl]amino]-]
viability at 50 µM [6, 14]: 5%
MIC [5, 12]: 3.26 to 6.52 µg/mL (≈ 9.99 to 20 µM)
viability at 50 µM [7, 10]: 13%
viability at 50 µM [7, 11]: 13%

C[C@@H]1CC[C@H]2[C@@H](C)C(=O)O[C@@H]3O[C@@]4(C)CC[C@@H]1[C@]32OO4 [Artemisinin]
Live cell %, ten day old stationary phase culture (in brackets) ([2]; 7 days): 73%
Live cell %, round body form [3]: 28%
viability at 50 µM [3]: 24%
Ratios of green/red fluorescence, Primary screening [3]: 5.96
Ratios of green/red fluorescence, Rescreening (first column) [3]: 6.14
Ratios of green/red fluorescence, Rescreening (second column) [3]: 6.17
MIC [5, 12]: 50 to 100 µg/mL (≈ 177 to 354 µM)

Cc1c2oc3c(C)ccc(C(=O)N[C@@H]4C(=O)N[C@H](C(C)C)C(=O)N5CCC[C@H]5C(=O)N(C)CC(=O)N(C)[C@@H](C(C)C)C(=O)O[C@@H]4C)c3nc-2c(C(=O)N[C@@H]2C(=O)N[C@H](C(C)C)C(=O)N3CCC[C@H]3C(=O)N(C)CC(=O)N(C)[C@@H](C(C)C)C(=O)O[C@@H]2C)c(N)c1=O [NSC3053, Dactinomycin] (I: T[dV]P[Sar][NMeV] / II: T[dV]P[Sar][NMeV]; ester I:1-I:C, II:1-II:C; linker I:N-II:N via Actinocin(9to1))
Residual viable cells (SYBR Green I/PI assay) [6, 15]: 37%
MIC ([5]; growing B. burgdorferi, listed as Dactinomycin): ≦0.78 μg/mL
MIC ([5]; growing B. burgdorferi, listed as dactinomycin): ≤ 0.78 µg/mL
Residual viable cells (epifluorescence microscope counting) [7, 15]: 30%
Activity against persisters (residual viable cell percentage) ([7]; stationary phase persisters): 30%

COc1cccc2c1C(=O)c1c(O)c3c(c(O)c1C2=O)C[C@@](O)(/C(C)=N\O)C[C@@H]3OC1CC(N)C(O)C(C)O1.Cl (some centres unmarked) [NSC143491, Daunomycin 3-oxime hydrochloride]
viability at 50 µM [6, 14]: 0%
MIC [5, 12]: ≤ 0.36 µg/mL
viability at 50 µM [7, 10]: 6%
viability at 50 µM [7, 11]: 6%

O=C1CN(/N=C/c2ccc([N+](=O)[O-])o2)C(=O)N1 [Nft, nitrofurantoin]
Live cell %, ten day old stationary phase culture (in brackets) ([2]; 7 days): 82%
Live cell %, round body form [3]: 33%
